The results in this text go back to patent US10213433B2 (AbbVie Inc., priority 2010, dated 2019).

Bcl-2 protein, sequence (P10415 whole entry): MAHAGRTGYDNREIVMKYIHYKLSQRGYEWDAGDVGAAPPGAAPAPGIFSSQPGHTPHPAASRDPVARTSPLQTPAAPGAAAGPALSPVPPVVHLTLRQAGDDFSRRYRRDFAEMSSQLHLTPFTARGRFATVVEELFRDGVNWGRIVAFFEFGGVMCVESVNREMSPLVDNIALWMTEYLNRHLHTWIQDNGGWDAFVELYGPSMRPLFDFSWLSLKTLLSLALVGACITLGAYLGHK

For the test, the target named is Bcl-2 protein (Homo sapiens (Human), UniProt P10415). The test is described as follows: Bcl-2 binding TR-FRET (Time-Resolved Fluorescence-Resonance-Energy-Transfer) assay. The note with it: inhibition constant for binding to Bcl-2 protein. An excerpt:
The smaller the Ki value, the greater is the binding affinity.
(In TR-FRET formats the signal depends on donor and acceptor labels being close together.)
Take `CCN(C)C(=O)N1CCOC(CNc2ccc(S(=O)(=O)NC(=O)c3ccc(N4CCN(CC5=C(c6ccc(Cl)cc6)CC(C)(C)CC5)CC4)cc3Oc3cnc4[nH]ccc4c3)cc2[N+](=O)[O-])C1` (stereo not drawn) [Compound 318, 2-{[(4-{[4-(4-{[2-(4-chlorophenyl)-4,4-dimethylcyclohex-1-en-1-yl]methyl}piperazin-1-yl)-2-(1H-pyrrolo[2,3-b]pyridin-5-yloxy)benzoyl]sulfamoyl}-2-nitrophenyl)amino]methyl}-N-ethyl-N-methylmorpholine-4-carboxamide]: the inhibitory constant (Ki) is under 0.01 nM.
In turn, `CC1(C)CCC(CN2CCN(c3ccc(C(=O)NS(=O)(=O)c4ccc(NC5CCN(C6CC6)CC5)c([N+](=O)[O-])c4)c(Oc4cnc5[nH]ccc5c4)c3)CC2)=C(c2ccc(Cl)cc2)C1` [Compound 98, 4-(4-{[2-(4-chlorophenyl)-4,4-dimethylcyclohex-1-en-1-yl]methyl}piperazin-1-yl)-N-({4-[(1-cyclopropylpiperidin-4-yl)amino]-3-nitrophenyl}sulfonyl)-2-(1H-pyrrolo[2,3-b]pyridin-5-yloxy)benzamide] had a Ki of under 0.01 nM.
Next, `COC1(C)CCC(c2ccc(Cl)cc2)=C(CN2CCN(c3ccc(C(=O)NS(=O)(=O)c4ccc(NC[C@H]5CC[C@@](C)(O)CC5)c([N+](=O)[O-])c4)c(Oc4cnc5[nH]ccc5c4)c3)CC2)C1` (stereo partly drawn) [Compound 377, 4-(4-{[2-(4-chlorophenyl)-5-methoxy-5-methylcyclohex-1-en-1-yl]methyl}piperazin-1-yl)-N-[(4-{[(trans-4-hydroxy-4-methylcyclohexyl)methyl]amino}-3-nitrophenyl)sulfonyl]-2-(1H-pyrrolo[2,3-b]pyridin-5-yloxy)benzamide]: under 0.001 nM; `CN1CCC(CNc2ccc(S(=O)(=O)NC(=O)c3ccc(N4CCN(CC5=C(c6ccc(Cl)cc6)CC(C)(C)CC5)CC4)cc3Oc3cnc4[nH]ccc4c3)cc2[N+](=O)[O-])CC1` [Compound 65, 4-(4-{[2-(4-chlorophenyl)-4,4-dimethylcyclohex-1-en-1-yl]methyl}piperazin-1-yl)-N-[(4-{[(1-methylpiperidin-4-yl)methyl]amino}-3-nitrophenyl)sulfonyl]-2-(1H-pyrrolo[2,3-b]pyridin-5-yloxy)benzamide]: under 0.01 nM; `CC1(C)CCC(CN2CCN(c3ccc(C(=O)NS(=O)(=O)c4ccc(OCC5(F)CCN(C6CC6)CC5)c([N+](=O)[O-])c4)c(Oc4cnc5[nH]ccc5c4)c3)CC2)=C(c2ccc(Cl)cc2)C1` [Compound 173, 4-(4-{[2-(4-chlorophenyl)-4,4-dimethylcyclohex-1-en-1-yl]methyl}piperazin-1-yl)-N-({4-[(1-cyclopropyl-4-fluoropiperidin-4-yl)methoxy]-3-nitrophenyl}sulfonyl)-2-(1H-pyrrolo[2,3-b]pyridin-5-yloxy)benzamide]: under 0.01 nM.
In the case of `COCC1CCC(CNc2ccc(S(=O)(=O)NC(=O)c3ccc(N4CCN(CC5=C(c6ccc(Cl)cc6)CC(C)(C)CC5)CC4)cc3Oc3cnc4[nH]ccc4c3)cc2[N+](=O)[O-])CC1` (stereo not drawn) [Compound 374, 4-(4-{[2-(4-chlorophenyl)-4,4-dimethylcyclohex-1-en-1-yl]methyl}piperazin-1-yl)-N-{[4-({[4-(methoxymethyl)cyclohexyl]methyl}amino)-3-nitrophenyl]sulfonyl}-2-(1H-pyrrolo[2,3-b]pyridin-5-yloxy)benzamide] it was under 0.001 nM; in that of `CC1(C)CCC(CN2CCN(c3ccc(C(=O)NS(=O)(=O)c4ccc(NCC5CCN(C6COC6)CC5)c([N+](=O)[O-])c4)c(Oc4cnc5[nH]ccc5c4)c3)CC2)=C(c2ccc(Cl)cc2)C1` [Compound 163, 4-(4-{[2-(4-chlorophenyl)-4,4-dimethylcyclohex-1-en-1-yl]methyl}piperazin-1-yl)-N-[(3-nitro-4-{[(1-oxetan-3-ylpiperidin-4-yl)methyl]amino}phenyl)sulfonyl]-2-(1H-pyrrolo[2,3-b]pyridin-5-yloxy)benzamide], under 0.01 nM; in that of `CC1(C)CCC(CN2CCN(c3ccc(C(=O)NS(=O)(=O)c4ccc(NCC5(N)CCOCC5)c([N+](=O)[O-])c4)c(Oc4cnc5[nH]ccc5c4)c3)CC2)=C(c2ccc(Cl)cc2)C1` [Compound 108, N-[(4-{[(4-aminotetrahydro-2H-pyran-4-yl)methyl]amino}-3-nitrophenyl)sulfonyl]-4-(4-{[2-(4-chlorophenyl)-4,4-dimethylcyclohex-1-en-1-yl]methyl}piperazin-1-yl)-2-(1H-pyrrolo[2,3-b]pyridin-5-yloxy)benzamide], under 0.01 nM.
For the molecule `O=C(NS(=O)(=O)c1cnc(OCC2(F)CCN(C3COC3)CC2)c(Cl)c1)c1ccc(N2CCN(CC3=C(c4ccc(Cl)cc4)CC4(CC3)CC4)CC2)cc1Oc1cnc2[nH]ccc2c1` [Compound 345, N-[(5-chloro-6-{[4-fluoro-1-(oxetan-3-yl)piperidin-4-yl]methoxy}pyridin-3-yl)sulfonyl]-4-(4-{[5-(4-chlorophenyl)spiro[2.5]oct-5-en-6-yl]methyl}piperazin-1-yl)-2-(1H-pyrrolo[2,3-b]pyridin-5-yloxy)benzamide], the inhibitory constant (Ki) was under 0.01 nM.
Consider `CC1(C)CCC(CN2CCN(c3ccc(C(=O)NS(=O)(=O)c4ccc(OCC5(F)CCN(C6COC6)CC5)c(C#N)c4)c(Oc4cnc5[nH]ccc5c4)c3)CC2)=C(c2ccc(Cl)cc2)C1` [Compound 357, 4-(4-{[2-(4-chlorophenyl)-4,4-dimethylcyclohex-1-en-1-yl]methyl}piperazin-1-yl)-N-[(3-cyano-4-{[4-fluoro-1-(oxetan-3-yl)piperidin-4-yl]methoxy}phenyl)sulfonyl]-2-(1H-pyrrolo[2,3-b]pyridin-5-yloxy)benzamide], for which the inhibitory constant (Ki) is under 0.01 nM.
Turning to `CC1(C)CCC(CN2CCN(c3ccc(C(=O)NS(=O)(=O)c4ccc(NCC5CN(C6COC6)CCO5)c(S(=O)(=O)C(F)(F)F)c4)c(Oc4cnc5[nH]ccc5c4)c3)CC2)=C(c2ccc(Cl)cc2)C1` (stereo not drawn) [Compound 241, 4-(4-{[2-(4-chlorophenyl)-4,4-dimethylcyclohex-1-en-1-yl]methyl}piperazin-1-yl)-N-({4-({[4-(oxetan-3-yl)morpholin-2-yl]methyl}amino)-3-[(trifluoromethyl)sulfonyl]phenyl}sulfonyl)-2-(1H-pyrrolo[2,3-b]pyridin-5-yloxy)benzamide], the Ki was under 0.01 nM.
Next, `CN(C)CC(=O)N1CCC(F)(COc2ncc(S(=O)(=O)NC(=O)c3ccc(N4CCN(CC5=C(c6ccc(Cl)cc6)CC(C)(C)CC5)CC4)cc3Oc3cnc4[nH]ccc4c3)cc2Cl)CC1` [Compound 270, N-[(5-chloro-6-{[1-(N,N-dimethylglycyl)-4-fluoropiperidin-4-yl]methoxy}pyridin-3-yl)sulfonyl]-4-(4-{[2-(4-chlorophenyl)-4,4-dimethylcyclohex-1-en-1-yl]methyl}piperazin-1-yl)-2-(1H-pyrrolo[2,3-b]pyridin-5-yloxy)benzamide]: under 0.01 nM.
Next, `CC1(C)CCC(CN2CCN(c3ccc(C(=O)NS(=O)(=O)c4ccc(OCC5CCN(C6COC6)CC5)c([N+](=O)[O-])c4)c(Oc4cnc5[nH]ccc5c4)c3)CC2)=C(c2ccc(Cl)cc2)C1` [Compound 191, 4-(4-{[2-(4-chlorophenyl)-4,4-dimethylcyclohex-1-en-1-yl]methyl}piperazin-1-yl)-N-({3-nitro-4-[(1-oxetan-3-ylpiperidin-4-yl)methoxy]phenyl}sulfonyl)-2-(1H-pyrrolo[2,3-b]pyridin-5-yloxy)benzamide]: under 0.01 nM; `CC1(C)CCC(CN2CCN(c3ccc(C(=O)NS(=O)(=O)c4ccc(NC[C@@H]5CCN(C6CCOCC6)C5)c([N+](=O)[O-])c4)c(Oc4cnc5[nH]ccc5c4)c3)CC2)=C(c2ccc(Cl)cc2)C1` [Compound 145, 4-(4-{[2-(4-chlorophenyl)-4,4-dimethylcyclohex-1-en-1-yl]methyl}piperazin-1-yl)-N-{[3-nitro-4-({[(3S)-1-tetrahydro-2H-pyran-4-ylpyrrolidin-3-yl]methyl}amino)phenyl]sulfonyl}-2-(1H-pyrrolo[2,3-b]pyridin-5-yloxy)benzamide]: under 0.01 nM.
Next, `CC1(C)CCC(CN2CCN(c3ccc(C(=O)NS(=O)(=O)c4ccc(NC5CN(C6CCOC6)C5)c([N+](=O)[O-])c4)c(Oc4cnc5[nH]ccc5c4)c3)CC2)=C(c2ccc(Cl)cc2)C1` (stereo not drawn) [Compound 117, 4-(4-{[2-(4-chlorophenyl)-4,4-dimethylcyclohex-1-en-1-yl]methyl}piperazin-1-yl)-N-({3-nitro-4-[(1-tetrahydrofuran-3-ylazetidin-3-yl)amino]phenyl}sulfonyl)-2-(1H-pyrrolo[2,3-b]pyridin-5-yloxy)benzamide]: under 0.01 nM; `CC1(C)CCC(CN2CCN(c3ccc(C(=O)NS(=O)(=O)c4ccc(NCC5CN(C6COC6)C5)c([N+](=O)[O-])c4)c(Oc4cnc5[nH]ccc5c4)c3)CC2)=C(c2ccc(Cl)cc2)C1` [Compound 162, 4-(4-{[2-(4-chlorophenyl)-4,4-dimethylcyclohex-1-en-1-yl]methyl}piperazin-1-yl)-N-[(3-nitro-4-{[(1-oxetan-3-ylazetidin-3-yl)methyl]amino}phenyl)sulfonyl]-2-(1H-pyrrolo[2,3-b]pyridin-5-yloxy)benzamide]: under 0.01 nM.
Molecule `CC(=O)N1CCOC(CNc2ccc(S(=O)(=O)NC(=O)c3ccc(N4CCN(CC5=C(c6ccc(Cl)cc6)CC(C)(C)CC5)CC4)cc3Oc3cnc4[nH]ccc4c3)cc2[N+](=O)[O-])C1` (stereo not drawn) [Compound 136, N-[(4-{[(4-acetylmorpholin-2-yl)methyl]amino}-3-nitrophenyl)sulfonyl]-4-(4-{[2-(4-chlorophenyl)-4,4-dimethylcyclohex-1-en-1-yl]methyl}piperazin-1-yl)-2-(1H-pyrrolo[2,3-b]pyridin-5-yloxy)benzamide] came in with a Ki of under 0.01 nM.
In the case of `CC1(C)CCC(CN2CCN(c3ccc(C(=O)NS(=O)(=O)c4ccc(NCC5COCCN5C5CCOC5)c([N+](=O)[O-])c4)c(Oc4cnc5[nH]ccc5c4)c3)CC2)=C(c2ccc(Cl)cc2)C1` (stereo not drawn) [Compound 171, 4-(4-{[2-(4-chlorophenyl)-4,4-dimethylcyclohex-1-en-1-yl]methyl}piperazin-1-yl)-N-[(3-nitro-4-{[(4-tetrahydrofuran-3-ylmorpholin-3-yl)methyl]amino}phenyl)sulfonyl]-2-(1H-pyrrolo[2,3-b]pyridin-5-yloxy)benzamide] it was under 0.01 nM.

For orientation: Ki means the dissociation constant of the complex between target and ligand, obtained from inhibition or displacement. Higher therefore signals weaker binding.
